Where a SMILES comes first, the peptide text is derived from it. [ ]: non-standard residue; d: D form. pY = N[C@@H](Cc1ccc(OP(=O)(O)O)cc1)C(=O)O
How the values were obtained:
[1] = test system: epileptic animals (KA-SE); test: Spontaneous recurrent seizures (video-EEG) after kainic acid-induced status epilepticus (KA-SE model of TLE); format: in vivo, mice; details: 20 mg/kg IP twice daily for two weeks
From the text: (§1) Determining whether pY816 may be beneficial in epileptic animals required modification of our study of the kainic acid (KA)-status epilepticus (SE) model. To more closely mimic the clinical scenario in which patients seek medical attention for established TLE, we induced KA-SE and then conducted video-EEG recordings to detect spontaneous recurrent seizures during baseline periods of two to four weeks until they developed TLE prior to treating with pY816 peptide. In contrast to just three days of treatment with pY816 deployed in previous studies, we sought a more prolonged treatment with pY816 for the current experiments, namely two weeks. The intravenous route of administration used for three days in the prior studies was not feasible for two weeks, leading us to ask whether treatment via intraperitoneal route could inhibit activation of PLCγ1. We used the phosphorylation of residue Y783 of PLCγ1 detected on western blot of brain lysates as a surrogate measure of PLCγ1 activation.
Having verified that intraperitoneal administration of pY816 inhibited PLCγ1 activation, we then asked whether treatment with pY816 initiated after onset of epilepsy and continued for two weeks would reduce the severity of epilepsy or even induce a remission. Towards that end, we induced KA-SE but then followed the animals for several weeks until they developed TLE as assessed by detection of SRS in continuous video-EEG recordings. We quantified the number of SRS in each animal by blinded review of video-EEG recordings during three distinct two week epochs (FIG. 8): a) baseline; b) treatment with pY816 (n=9) or Scr control (n=6), 20 mg/kg IP twice daily for two weeks (on Tx); c) following termination of treatment (Post Tx). As noted in FIG. 8, following induction of status epilepticus induced by infusion of kainic acid into amygdala (Gu et al 2015) animals underwent continuous video-EEG recording to detect spontaneous recurrent seizures. Following baseline recording of two weeks, animals were treated with either pY816 or Scr control peptide (20 mg/kg) twice daily for two weeks (Day 15-28). Video-EEG recording continued for two weeks following termination of treatment (Post-treatment).
Results are shown in FIG. 9, where each symbol represents the number of seizures experienced by a given animal during Baseline, Treatment (Tx), or Post-treatment (Post Tx) periods. Horizontal bars designate median. Treatment (Tx) consisted of either pY816 or Scr control given 20 mg/kg twice daily for two weeks. Note that seizure detection was performed by analyses of video-EEG recordings by two blinded investigators.
Antiseizure drugs in current clinical use provide symptomatic relief of seizures in many but not all patients, but seizures typically recur upon cessation of the drug. To verify that similar findings occur in our animal model, we tested the effect of an antiseizure drug in current clinical use in our model (carbamazepine). We infused additional animals with KA and assessed the occurrence of SRS with continuous video-EEG monitoring for several weeks. […] Thus, like TLE in humans, continuous treatment with an antiseizure drug suppresses seizures, yet seizures recur upon discontinuation of treatment.

PLCγ1 = target: T1, PLCγ1 (Mus musculus, UniProt Q62077); test: Inhibition of PLCγ1 activation: western blot of p-PLCγ1 (pY783)/PLCγ1 in hippocampal lysates after intraperitoneal injection; format: in vivo; details: single dose 20 mg/kg i.p., wild type mice, hippocampal lysates at 3 h; dose dependent (10 or 20 mg/kg)
T1 construct: from tissue; host or cells: hippocampus of adult wild type mice
T1 sequence (Q62077 1-1302): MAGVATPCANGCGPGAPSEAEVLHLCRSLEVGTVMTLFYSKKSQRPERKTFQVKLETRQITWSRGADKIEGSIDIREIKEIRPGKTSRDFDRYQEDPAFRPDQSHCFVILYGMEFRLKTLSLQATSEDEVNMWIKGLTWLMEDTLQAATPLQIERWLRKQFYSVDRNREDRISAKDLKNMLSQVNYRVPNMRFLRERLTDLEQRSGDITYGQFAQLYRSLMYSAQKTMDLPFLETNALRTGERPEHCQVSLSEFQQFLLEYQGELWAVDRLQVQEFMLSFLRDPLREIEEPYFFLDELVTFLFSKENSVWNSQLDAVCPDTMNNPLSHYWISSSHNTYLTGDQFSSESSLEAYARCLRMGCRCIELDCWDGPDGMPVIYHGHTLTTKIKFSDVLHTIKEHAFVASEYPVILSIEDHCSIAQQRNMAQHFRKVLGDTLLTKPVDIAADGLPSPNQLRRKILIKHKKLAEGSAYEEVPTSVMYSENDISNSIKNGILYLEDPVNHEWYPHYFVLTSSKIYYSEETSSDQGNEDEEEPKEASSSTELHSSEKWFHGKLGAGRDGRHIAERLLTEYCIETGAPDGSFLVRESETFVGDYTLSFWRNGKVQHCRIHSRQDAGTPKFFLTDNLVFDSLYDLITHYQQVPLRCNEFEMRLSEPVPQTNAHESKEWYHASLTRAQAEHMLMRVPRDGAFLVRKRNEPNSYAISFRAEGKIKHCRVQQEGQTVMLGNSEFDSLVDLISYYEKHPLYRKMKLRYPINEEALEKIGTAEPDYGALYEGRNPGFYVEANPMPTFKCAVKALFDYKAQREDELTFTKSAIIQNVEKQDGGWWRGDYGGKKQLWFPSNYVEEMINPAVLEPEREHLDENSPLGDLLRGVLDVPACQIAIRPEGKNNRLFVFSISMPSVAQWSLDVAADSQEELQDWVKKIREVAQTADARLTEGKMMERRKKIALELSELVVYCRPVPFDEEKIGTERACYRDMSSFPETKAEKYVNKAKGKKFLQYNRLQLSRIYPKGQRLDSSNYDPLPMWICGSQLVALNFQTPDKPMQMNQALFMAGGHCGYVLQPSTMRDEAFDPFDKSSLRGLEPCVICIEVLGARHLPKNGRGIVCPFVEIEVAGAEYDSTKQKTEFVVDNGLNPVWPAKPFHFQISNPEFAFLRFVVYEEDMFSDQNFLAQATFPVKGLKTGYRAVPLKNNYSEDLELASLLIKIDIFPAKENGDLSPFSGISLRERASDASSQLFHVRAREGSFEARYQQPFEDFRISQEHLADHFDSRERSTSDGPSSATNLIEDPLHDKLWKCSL
From the text: as §1
Hippocampal lysates (30-40 μg) were subjected to SDS_PAGE and western blotting. The blots were probed with antibodies specifically recognizing p-PLCγ1 (pY783) (a surrogate for activation of PLCγ1) and PLCγ1.

CC[C@H](C)[C@H](NC(=O)[C@H](CC(=O)O)NC(=O)[C@H](CC(C)C)NC(=O)[C@H](Cc1ccc(OP(=O)(O)O)cc1)NC(=O)[C@@H](NC(=O)[C@@H]1CCCN1C(=O)[C@H](CO)NC(=O)[C@H](C)NC(=O)[C@H](CCCCN)NC(=O)[C@H](C)NC(=O)[C@H](CC(C)C)NC(=O)[C@H](CC(N)=O)NC(=O)[C@H](CCC(N)=O)NC(=O)[C@H](CC(C)C)NC(=O)[C@H](CCCNC(=N)N)NC(=O)[C@H](CCCNC(=N)N)NC(=O)[C@H](CCCNC(=N)N)NC(=O)[C@H](CCC(N)=O)NC(=O)[C@H](CCCNC(=N)N)NC(=O)[C@H](CCCNC(=N)N)NC(=O)[C@H](CCCCN)NC(=O)[C@H](CCCCN)NC(=O)[C@H](CCCNC(=N)N)NC(=O)CNC(=O)[C@@H](N)Cc1ccc(O)cc1)C(C)C)C(=O)O [pY816] (H-YGRKKRRQRRRLQNLAKASPV[pY]LDI-OH)
Overt untoward effects during or following treatment [1]: No overt untoward effects were detected
Inhibition of PLCγ1 activation (reduction of p-PLCγ1 (pY783)/PLCγ1 ratio versus Scr) (PLCγ1): ~60%

Source: patent publication US20190269752A1, “Methods for the Prevention or Treatment of Epilepsy” (Duke University, priority 2018, published 2019)
